Calls of active or inactive are those of the source.
Assays:
[1] = target: T1, Sentrin-specific protease 6 (Homo sapiens, UniProt Q9GZR1); type: functional;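 also: Luminescence-based dose-response confirmatory assay of SENP6 inhibition, following up an ultra-high-throughput screen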
T1 sequence (Q9GZR1 whole entry): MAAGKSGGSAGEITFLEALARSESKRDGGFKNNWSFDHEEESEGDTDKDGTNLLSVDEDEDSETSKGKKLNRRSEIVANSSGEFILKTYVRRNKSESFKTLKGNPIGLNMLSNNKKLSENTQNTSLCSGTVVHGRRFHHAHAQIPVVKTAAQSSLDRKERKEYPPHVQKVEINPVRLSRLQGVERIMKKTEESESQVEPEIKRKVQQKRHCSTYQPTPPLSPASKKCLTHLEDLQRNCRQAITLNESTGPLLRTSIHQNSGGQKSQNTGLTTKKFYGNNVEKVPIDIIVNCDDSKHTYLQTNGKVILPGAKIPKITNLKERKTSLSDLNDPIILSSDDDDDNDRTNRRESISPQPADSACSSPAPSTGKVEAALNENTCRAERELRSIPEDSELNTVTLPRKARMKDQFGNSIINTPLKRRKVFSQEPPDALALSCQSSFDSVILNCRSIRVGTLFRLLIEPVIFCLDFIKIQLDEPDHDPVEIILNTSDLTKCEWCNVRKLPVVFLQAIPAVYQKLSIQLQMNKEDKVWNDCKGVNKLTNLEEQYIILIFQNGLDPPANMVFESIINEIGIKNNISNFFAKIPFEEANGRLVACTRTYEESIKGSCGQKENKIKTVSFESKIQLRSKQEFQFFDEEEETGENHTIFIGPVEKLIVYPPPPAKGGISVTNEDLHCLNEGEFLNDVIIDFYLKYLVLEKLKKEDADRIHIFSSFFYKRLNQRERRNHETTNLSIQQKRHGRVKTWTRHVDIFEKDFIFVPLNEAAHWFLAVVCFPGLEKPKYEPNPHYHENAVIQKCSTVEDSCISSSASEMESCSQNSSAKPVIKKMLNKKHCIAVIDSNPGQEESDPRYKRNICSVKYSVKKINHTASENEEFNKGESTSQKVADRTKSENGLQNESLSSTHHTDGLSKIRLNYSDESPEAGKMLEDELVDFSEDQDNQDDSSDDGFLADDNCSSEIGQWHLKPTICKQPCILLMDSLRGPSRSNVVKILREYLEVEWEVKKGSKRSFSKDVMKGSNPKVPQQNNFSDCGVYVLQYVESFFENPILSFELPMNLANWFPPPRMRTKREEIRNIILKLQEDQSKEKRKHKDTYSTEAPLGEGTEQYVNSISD

[2] = target: T2, Sentrin-specific protease 7 (Homo sapiens, UniProt Q9BQF6); type: functional;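 also: Luminescence-based dose-response confirmation of ultra-high-throughput screening hits, measuring inhibition of SENP7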
T2 sequence (Q9BQF6 whole entry): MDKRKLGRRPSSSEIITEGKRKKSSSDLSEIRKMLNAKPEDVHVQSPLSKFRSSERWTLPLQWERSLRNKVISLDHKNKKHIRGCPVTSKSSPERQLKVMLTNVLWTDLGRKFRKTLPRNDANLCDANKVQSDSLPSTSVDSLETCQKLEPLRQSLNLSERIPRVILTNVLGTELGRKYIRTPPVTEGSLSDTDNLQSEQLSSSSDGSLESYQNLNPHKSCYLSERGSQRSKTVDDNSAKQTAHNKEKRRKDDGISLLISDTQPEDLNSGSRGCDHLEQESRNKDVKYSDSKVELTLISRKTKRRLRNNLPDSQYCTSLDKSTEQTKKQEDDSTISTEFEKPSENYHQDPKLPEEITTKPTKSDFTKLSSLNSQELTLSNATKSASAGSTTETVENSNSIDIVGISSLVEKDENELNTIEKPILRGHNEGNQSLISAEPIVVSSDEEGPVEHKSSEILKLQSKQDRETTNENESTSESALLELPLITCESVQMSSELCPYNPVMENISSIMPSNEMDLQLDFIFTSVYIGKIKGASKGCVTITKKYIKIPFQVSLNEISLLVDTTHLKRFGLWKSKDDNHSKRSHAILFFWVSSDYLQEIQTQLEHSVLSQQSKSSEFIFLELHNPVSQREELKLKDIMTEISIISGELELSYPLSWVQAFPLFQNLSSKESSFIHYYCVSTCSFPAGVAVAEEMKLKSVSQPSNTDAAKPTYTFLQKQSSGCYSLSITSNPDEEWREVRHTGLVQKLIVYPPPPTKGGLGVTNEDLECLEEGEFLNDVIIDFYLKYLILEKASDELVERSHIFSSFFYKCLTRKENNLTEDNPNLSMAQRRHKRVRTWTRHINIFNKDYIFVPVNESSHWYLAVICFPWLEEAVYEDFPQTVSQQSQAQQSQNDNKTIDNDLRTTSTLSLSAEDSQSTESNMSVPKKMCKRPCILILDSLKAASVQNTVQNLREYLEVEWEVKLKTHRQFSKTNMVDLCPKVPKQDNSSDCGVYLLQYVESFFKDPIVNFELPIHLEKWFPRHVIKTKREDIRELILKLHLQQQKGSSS

[3] = target: T3, Sentrin-specific protease 8 (Homo sapiens, UniProt Q96LD8); type: functional;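 also: luminescence read-out of SENP8 inhibition, dose-response confirmation following an ultra-high-throughput screen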
T3 sequence (Q96LD8 whole entry): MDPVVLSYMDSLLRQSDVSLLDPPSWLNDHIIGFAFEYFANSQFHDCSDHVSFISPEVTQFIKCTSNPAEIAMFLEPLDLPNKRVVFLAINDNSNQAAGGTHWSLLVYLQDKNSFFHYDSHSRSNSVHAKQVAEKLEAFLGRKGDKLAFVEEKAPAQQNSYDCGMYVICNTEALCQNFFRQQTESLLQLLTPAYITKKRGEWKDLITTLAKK

Caspase-3 = target: T4, Caspase-3 (Homo sapiens, UniProt P42574); type: functional;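 also: Dose-response selectivity test against caspase-3 for candidate inhibitors of sentrin-specific proteases (SENPs)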
T4 sequence (P42574 whole entry): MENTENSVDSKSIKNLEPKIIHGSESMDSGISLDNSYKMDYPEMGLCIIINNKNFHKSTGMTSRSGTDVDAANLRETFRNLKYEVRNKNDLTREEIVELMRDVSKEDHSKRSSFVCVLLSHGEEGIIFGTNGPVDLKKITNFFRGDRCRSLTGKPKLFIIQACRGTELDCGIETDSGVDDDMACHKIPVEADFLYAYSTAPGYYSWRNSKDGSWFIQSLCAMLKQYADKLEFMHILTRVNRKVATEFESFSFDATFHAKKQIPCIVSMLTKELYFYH

Fatty acid synthase [4] = target: T5, Fatty acid synthase (Homo sapiens, UniProt P49327); experiment: inhibition of human FAS-TE enzyme activity – biochemical, kinetic fluorescence intensity, dose response (AID 624326); type: functional;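 also: rate of fluorescence rise from hydrolysis of a fluorogenic O-methyl fluorescein ester substrate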
T5 sequence (P49327 whole entry): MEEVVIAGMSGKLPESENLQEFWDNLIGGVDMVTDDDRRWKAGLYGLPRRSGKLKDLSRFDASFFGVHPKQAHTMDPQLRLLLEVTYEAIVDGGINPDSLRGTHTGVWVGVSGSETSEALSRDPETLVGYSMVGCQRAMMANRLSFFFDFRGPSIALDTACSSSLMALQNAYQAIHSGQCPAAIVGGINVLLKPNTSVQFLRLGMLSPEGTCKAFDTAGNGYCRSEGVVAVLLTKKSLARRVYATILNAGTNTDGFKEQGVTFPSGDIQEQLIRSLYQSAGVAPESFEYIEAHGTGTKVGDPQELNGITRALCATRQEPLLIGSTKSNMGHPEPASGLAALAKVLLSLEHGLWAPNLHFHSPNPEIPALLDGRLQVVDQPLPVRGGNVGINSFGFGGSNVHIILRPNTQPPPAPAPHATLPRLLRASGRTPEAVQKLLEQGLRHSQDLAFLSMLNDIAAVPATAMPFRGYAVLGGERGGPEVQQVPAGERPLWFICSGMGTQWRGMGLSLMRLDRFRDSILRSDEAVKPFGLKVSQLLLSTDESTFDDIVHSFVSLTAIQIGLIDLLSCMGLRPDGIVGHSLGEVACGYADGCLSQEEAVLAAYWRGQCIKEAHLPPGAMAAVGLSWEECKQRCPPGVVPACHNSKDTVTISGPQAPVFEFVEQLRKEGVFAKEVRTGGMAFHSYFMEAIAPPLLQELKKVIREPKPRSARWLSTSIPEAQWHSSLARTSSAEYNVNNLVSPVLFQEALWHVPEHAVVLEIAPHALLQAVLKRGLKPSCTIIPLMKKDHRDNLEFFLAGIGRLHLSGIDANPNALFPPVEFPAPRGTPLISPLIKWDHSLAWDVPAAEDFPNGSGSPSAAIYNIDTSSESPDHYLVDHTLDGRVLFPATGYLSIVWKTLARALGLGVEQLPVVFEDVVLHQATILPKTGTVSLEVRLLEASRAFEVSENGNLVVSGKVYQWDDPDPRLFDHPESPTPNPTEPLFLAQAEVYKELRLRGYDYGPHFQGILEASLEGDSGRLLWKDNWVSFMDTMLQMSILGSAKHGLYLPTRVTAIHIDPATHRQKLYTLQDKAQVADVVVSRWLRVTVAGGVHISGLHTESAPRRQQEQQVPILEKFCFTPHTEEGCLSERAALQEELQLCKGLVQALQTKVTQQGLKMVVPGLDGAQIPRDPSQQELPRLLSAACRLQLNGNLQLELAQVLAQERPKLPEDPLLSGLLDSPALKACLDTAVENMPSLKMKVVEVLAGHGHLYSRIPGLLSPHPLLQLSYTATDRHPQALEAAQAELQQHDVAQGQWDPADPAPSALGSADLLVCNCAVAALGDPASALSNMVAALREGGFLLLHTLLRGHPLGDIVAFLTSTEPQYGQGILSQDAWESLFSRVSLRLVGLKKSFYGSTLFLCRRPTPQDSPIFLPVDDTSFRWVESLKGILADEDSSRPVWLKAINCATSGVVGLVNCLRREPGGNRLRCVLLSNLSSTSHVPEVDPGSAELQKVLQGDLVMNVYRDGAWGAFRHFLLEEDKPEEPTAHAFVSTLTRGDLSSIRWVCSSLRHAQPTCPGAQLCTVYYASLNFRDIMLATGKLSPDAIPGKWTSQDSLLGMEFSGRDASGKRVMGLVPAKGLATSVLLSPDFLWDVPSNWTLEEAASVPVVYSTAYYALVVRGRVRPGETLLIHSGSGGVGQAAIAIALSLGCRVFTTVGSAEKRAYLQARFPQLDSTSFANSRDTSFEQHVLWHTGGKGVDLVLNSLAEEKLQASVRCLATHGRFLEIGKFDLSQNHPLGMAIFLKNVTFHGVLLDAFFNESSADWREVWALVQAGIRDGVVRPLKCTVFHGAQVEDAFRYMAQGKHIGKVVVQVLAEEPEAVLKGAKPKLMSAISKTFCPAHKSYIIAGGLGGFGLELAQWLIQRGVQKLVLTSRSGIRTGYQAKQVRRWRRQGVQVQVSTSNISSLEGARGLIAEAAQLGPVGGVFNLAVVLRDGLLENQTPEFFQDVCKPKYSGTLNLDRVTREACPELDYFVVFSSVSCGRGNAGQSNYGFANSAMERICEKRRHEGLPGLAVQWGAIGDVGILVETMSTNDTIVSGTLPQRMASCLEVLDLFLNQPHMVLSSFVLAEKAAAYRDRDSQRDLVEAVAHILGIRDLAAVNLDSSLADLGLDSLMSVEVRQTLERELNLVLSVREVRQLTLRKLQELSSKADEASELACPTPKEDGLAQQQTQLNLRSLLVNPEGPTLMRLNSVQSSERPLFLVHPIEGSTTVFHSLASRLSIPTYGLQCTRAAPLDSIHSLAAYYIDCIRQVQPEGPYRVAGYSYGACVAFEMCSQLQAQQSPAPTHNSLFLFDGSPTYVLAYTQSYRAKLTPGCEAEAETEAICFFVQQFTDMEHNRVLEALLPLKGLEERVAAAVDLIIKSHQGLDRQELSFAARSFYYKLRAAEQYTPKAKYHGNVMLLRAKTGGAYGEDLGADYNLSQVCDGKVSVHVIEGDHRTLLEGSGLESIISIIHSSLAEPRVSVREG

Fatty acid synthase [5] = target: T5, Fatty acid synthase; experiment: inhibition of human FAS-TE enzyme activity – biochemical, endpoint fluorescence intensity, uHTS hits, dose response (AID 624327); type: functional;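 also: fluorescence from hydrolysis of an O-methyl fluorescein acyl ester substrate by the enzyme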
[6] = Counterscreen for activators of the function of SWI/SNF related, matrix associated, actin dependent regulator of chromatin, subfamily a, member 2 (SMARCA2, BRM): Luminescence-based cell-based high throughput dose response assay to identify non-selective compounds using the VP16 reporter assay.; type: functional
[7] = Luminescence Cell-Based Dose Response HTS to Identify Inhibitors of 5'UTR Stem-Loop Driven Prion Protein mRNA Translation in H4 Neuroglioblastoma Cells. [Related pubchem assays: 1827 (Project Summary), 1813 (Primary HTS)]; type: functional
[8] = alpha-synuclein stem-loop luciferase translation blockers – H4 neuroglioma cells, luminescence, confirmation (AID 1988); type: functional, cell-based
Paired box protein Pax-8 = Paired box protein Pax-8 (Homo sapiens, UniProt Q06710); experiment: PAX8 transcriptional activity inhibition in RMG-I – RMG-I cells, luciferase, cherry-pick, dose response (AID 687027); type: functional, cell-based;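 also: luciferase reporter driven by Pax8 target thyroperoxidase promoter measured by SteadyGlo luminescence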
Sequence of Paired box protein Pax-8 (Q06710 whole entry): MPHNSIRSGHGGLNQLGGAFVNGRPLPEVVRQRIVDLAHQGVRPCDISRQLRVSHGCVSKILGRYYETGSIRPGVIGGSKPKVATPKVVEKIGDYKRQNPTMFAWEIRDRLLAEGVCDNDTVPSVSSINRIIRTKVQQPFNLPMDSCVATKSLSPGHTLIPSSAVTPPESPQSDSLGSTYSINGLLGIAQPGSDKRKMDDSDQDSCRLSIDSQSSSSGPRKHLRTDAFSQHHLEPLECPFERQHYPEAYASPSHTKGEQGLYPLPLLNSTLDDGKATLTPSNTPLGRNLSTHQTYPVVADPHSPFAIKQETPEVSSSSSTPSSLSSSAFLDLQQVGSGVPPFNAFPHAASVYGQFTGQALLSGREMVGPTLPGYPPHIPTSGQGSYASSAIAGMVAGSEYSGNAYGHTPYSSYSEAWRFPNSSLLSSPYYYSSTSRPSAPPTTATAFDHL

[9] = target: SWI/SNF-related matrix-associated actin-dependent regulator of chromatin subfamily A member 2 (Homo sapiens, UniProt P51531); experiment: Luminescence-based cell-based high throughput dose response assay to identify activators of the function of SWI/SNF related, matrix associated, actin dependent regulator of chromatin, subfamily a, member 2 (SMARCA2, BRM).; type: functional
Sequence of SWI/SNF-related matrix-associated actin-dependent regulator of chromatin subfamily A member 2 (P51531 whole entry): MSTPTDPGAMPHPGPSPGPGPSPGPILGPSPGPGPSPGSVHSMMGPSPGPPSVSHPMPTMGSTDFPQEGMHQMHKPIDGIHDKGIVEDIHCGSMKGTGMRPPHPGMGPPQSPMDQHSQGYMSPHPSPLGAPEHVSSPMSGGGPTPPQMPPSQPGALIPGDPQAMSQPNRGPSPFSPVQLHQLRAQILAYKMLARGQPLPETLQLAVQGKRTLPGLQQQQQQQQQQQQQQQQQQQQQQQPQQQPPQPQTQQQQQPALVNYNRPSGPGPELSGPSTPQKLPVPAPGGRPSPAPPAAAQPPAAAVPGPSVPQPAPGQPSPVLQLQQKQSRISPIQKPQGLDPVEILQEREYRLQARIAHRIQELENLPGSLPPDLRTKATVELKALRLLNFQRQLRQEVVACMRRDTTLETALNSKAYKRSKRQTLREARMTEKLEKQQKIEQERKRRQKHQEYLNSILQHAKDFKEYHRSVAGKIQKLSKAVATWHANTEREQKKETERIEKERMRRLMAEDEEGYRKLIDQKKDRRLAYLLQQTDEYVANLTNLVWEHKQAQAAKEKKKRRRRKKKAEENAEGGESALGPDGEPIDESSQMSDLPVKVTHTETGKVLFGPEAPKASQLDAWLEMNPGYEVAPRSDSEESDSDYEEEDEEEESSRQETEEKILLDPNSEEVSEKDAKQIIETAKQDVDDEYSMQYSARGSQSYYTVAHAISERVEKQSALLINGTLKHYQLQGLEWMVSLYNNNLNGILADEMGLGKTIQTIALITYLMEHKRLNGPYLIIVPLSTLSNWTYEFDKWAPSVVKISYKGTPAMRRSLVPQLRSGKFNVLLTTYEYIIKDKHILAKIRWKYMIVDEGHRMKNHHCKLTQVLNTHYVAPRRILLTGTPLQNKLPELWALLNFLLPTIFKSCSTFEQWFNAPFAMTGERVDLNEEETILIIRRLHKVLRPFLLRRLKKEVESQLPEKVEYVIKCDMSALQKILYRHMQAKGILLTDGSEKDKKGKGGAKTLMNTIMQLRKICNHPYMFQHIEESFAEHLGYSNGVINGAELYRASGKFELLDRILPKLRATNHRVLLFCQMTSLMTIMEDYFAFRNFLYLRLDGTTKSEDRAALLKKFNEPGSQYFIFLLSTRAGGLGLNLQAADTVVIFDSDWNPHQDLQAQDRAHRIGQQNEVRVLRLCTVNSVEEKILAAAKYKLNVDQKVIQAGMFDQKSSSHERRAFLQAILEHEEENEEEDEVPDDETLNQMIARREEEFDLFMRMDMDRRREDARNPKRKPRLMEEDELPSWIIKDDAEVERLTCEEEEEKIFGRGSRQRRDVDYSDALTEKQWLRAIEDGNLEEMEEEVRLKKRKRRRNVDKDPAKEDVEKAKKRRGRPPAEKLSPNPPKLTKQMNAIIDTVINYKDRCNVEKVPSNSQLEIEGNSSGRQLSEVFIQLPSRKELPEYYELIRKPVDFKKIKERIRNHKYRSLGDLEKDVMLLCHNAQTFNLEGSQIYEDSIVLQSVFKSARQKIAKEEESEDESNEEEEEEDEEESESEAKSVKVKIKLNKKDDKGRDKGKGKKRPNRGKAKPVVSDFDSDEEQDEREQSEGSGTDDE

[10] = luciferase reporter signal suppression in cells – H4 neuroglioma cells, luminescence, dose response (AID 1990); type: functional, cell-based
P388 = experiment: cells; type: functional; details: Mus musculus
SN12K1 = experiment: cells; type: functional; details: Homo sapiens
P388/ADR = experiment: cells; type: functional; details: Mus musculus
Beta-lactamase [11] = target: T6, Beta-lactamase (Pseudomonas aeruginosa, UniProt Q79MP6); experiment: inhibition of IMP-1 beta-lactamase activity – biochemical, epi-absorbance, selectivity assay for VIM-2 inhibitor project, dose response (AID 1920)
T6 sequence (Q79MP6 whole entry): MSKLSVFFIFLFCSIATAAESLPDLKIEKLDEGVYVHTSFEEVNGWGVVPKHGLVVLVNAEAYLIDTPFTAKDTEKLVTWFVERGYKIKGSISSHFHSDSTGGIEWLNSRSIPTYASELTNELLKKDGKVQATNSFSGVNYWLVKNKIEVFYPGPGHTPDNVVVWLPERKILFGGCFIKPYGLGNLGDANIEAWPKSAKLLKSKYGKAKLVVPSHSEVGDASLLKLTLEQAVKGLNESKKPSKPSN

Beta-lactamase [12] = target: T6, Beta-lactamase; experiment: […] counterscreen for selective VIM-2 inhibitors: dose response biochemical high throughput screening assay to identify inhibitors of IMP-1 metallo-beta-lactamase.
Beta-lactamase [13] = target: Beta-lactamase (Salmonella choleraesuis (strain SC-B67), UniProt Q5J463); experiment: Epi-absorbance-based counterscreen for selective VIM-2 inhibitors: dose response biochemical high throughput screening assay to identify inhibitors of TEM-1 serine-beta-lactamase.
Sequence of Beta-lactamase (Salmonella choleraesuis (strain SC-B67), UniProt Q5J463) (Q5J463 whole entry): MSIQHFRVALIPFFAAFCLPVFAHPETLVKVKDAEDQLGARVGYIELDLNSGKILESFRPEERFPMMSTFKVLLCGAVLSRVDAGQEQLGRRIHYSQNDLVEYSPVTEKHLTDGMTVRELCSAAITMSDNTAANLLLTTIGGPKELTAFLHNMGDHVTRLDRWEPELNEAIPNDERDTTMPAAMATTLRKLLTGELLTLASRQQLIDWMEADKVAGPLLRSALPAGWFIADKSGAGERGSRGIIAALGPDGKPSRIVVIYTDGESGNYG

[14] = target: T7, Endoribonuclease toxin MazF (Escherichia coli K-12, UniProt P0AE70); experiment: substrate-only fluorescence increase artefacts – biochemical, single-stranded RNase substrate, counter-screen for MazEF activator project, dose response (AID 588502); type: functional
T7 sequence (P0AE70 whole entry): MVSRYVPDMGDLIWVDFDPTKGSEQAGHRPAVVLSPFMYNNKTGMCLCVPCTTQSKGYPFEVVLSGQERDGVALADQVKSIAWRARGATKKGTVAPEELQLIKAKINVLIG

[15] = target: T7, Endoribonuclease toxin MazF; experiment: activation of MazEF endoribonuclease cleavage – biochemical, fluorescence, single-stranded RNA substrate, uHTS hits, dose response (AID 588481); type: functional

COC(=O)c1ccc(NC(=O)Nc2ccc(F)c(Cl)c2)cc1
IC50 [1]: > 100 µM (inactive)
IC50 [2]: 6.56 µM (active)
IC50 [3]: > 100 µM (inactive)
IC50 (Caspase-3): 48 µM (active)

COc1ccc([N+](=O)[O-])cc1NC(=O)C(C)OC(=O)CC1CCCC1 (stereo not given)
IC50 (Fatty acid synthase [4]): 5.28 µM (active)
IC50 (Fatty acid synthase [5]): 6.83 µM (active)

CN(C)CCN(C(=O)/C=C/c1cccs1)c1nc2c(F)cc(F)cc2s1
EC50 [6]: > 91.1 µM (inactive)
EC50 [7]: 10.4 µM (active)
EC50 [8]: 8.47 µM (active)
AC50 (Paired box protein Pax-8): 8.86 µM (active)
EC50 [9]: > 91.1 µM (inactive)
EC50 [10]: 12.5 µM (active)

NC(=O)c1ccccc1NC(=O)/C=C/c1c(Cl)cccc1Cl
IC50 [1]: > 100 µM (inactive)
IC50 [2]: 6.11 µM (active)
IC50 [3]: > 100 µM (inactive)
IC50 (Caspase-3): 21.5 µM (active)

O=C1N[C@H]2[C@H](O)[C@H](O)[C@@H](O)[C@H](O)[C@@H]2c2cc3c(c(O)c21)OCO3 [PANCRATISTATIN]
GI50 (P388): 0.0366 µM (active)
GI50 (SN12K1): 0.047 µM (active)
GI50 (P388/ADR): 0.0406 µM (active)

CCCCC(CC)C(=O)Nc1cc([N+](=O)[O-])ccc1F (stereo not given)
IC50 (Fatty acid synthase [4]): 4.44 µM (active)
IC50 (Fatty acid synthase [5]): 3.19 µM (active)

COc1ccccc1C(=O)Nc1nnc(SCC(=O)NCc2ccco2)s1
IC50 (Beta-lactamase [11]): > 59.6 µM (inactive)
IC50 (Beta-lactamase [12]): > 59.6 µM (inactive)
IC50 (Beta-lactamase [13]): > 59.6 µM (inactive)

CC(C)C(=O)Nc1ccc2nn(-c3ccc(F)cc3)nc2c1
IC50 [1]: 6.19 µM (active)
IC50 [2]: 3.03 µM (active)
IC50 [3]: 41.3 µM (active)
IC50 (Caspase-3): 8.48 µM (active)

CC(C)(C)C(=O)OCc1ccc(C2=CC(=O)CC(C)(C)C2=O)cc1
IC50 (Fatty acid synthase [4]): 3.9 µM (active)
IC50 (Fatty acid synthase [5]): 1.28 µM (active)

Cc1cc(C(=O)N/N=C/C(Cl)=C/c2ccccc2)c(C)o1
IC50 [1]: 22.6 µM (active)
IC50 [2]: 7.77 µM (active)
IC50 [3]: > 100 µM (inactive)
IC50 (Caspase-3): 18.2 µM (active)

O=C(CSc1nnc2scc(-c3ccccc3)n12)c1ccc2c(c1)OCCO2
EC50 [14]: > 99 µM (inactive)
EC50 [15]: > 99 µM (inactive)

COC(=O)N/N=C(\C)c1ccccc1Br
EC50 [6]: > 91.1 µM (inactive)
EC50 [9]: > 91.1 µM (inactive)

CCn1c(O)c(N=Nc2ccc3ccccc3n2)c2ccccc21
IC50 [1]: 1.11 µM (active)
IC50 [2]: 0.857 µM (active)
IC50 [3]: 1.83 µM (active)
IC50 (Caspase-3): 2.1 µM (active)

CCCn1c(O)c(N=Nc2ccc3ccccc3n2)c2ccccc21
EC50 [14]: > 99 µM (inactive)
EC50 [15]: > 99 µM (inactive)

CC/C=C\C/C=C\C/C=C\CCCCCCCC(=O)OC [METHYL LINOLENATE]
GI50 (P388): > 10 µM (inactive)
GI50 (SN12K1): > 100 µM (inactive)
GI50 (P388/ADR): 28.2 µM (inactive)

CC(C)=CCc1cc(-c2oc3cc(O)cc(O)c3c(=O)c2O)ccc1O [ISOLICOFLAVONOL]
EC50 [14]: > 99 µM (inactive)
EC50 [15]: 14 µM (active)

OC(C1CO1)C(O)C1CO1 (stereo not given)
GI50 (P388): 13.5 µM (inactive)
GI50 (SN12K1): 54.7 µM (inactive)
GI50 (P388/ADR): 9.79 µM (inactive)

O=C1NC(O)CCN1C1OC(CO)C(O)C1O (stereo not given)
GI50 (P388): > 250 µM (inactive)
GI50 (SN12K1): > 250 µM (inactive)
GI50 (P388/ADR): > 250 µM (inactive)

CCCn1c(S)nnc1C(C)C
IC50 (Beta-lactamase [11]): > 59.6 µM (inactive)
IC50 (Beta-lactamase [12]): > 59.6 µM (inactive)
IC50 (Beta-lactamase [13]): > 59.6 µM (inactive)

COCCN1CCN(c2c(C)c(C)nc3cc(-c4cccc(OC)c4)nn23)CC1
EC50 [6]: > 91.1 µM (inactive)
EC50 [9]: > 91.1 µM (inactive)

Reference: ChEMBL document CHEMBL1201862, “PubChem BioAssay data set” (2004)
